Consider 3 compounds from publication PMC9951552 (Science translational medicine, 2022).

One data set is described as follows: in vitro. To be noted: human.
For another data set, the system named is PfPI3K. To be noted: read-out: IC50 PfPI3K; in vitro; cited from earlier work.
Another data set deals with Pf3D7 trophozoites. The experiment in a line: Metabolomic perturbation profiling by LC-MS. Type of data set: cell-based, Plasmodium falciparum. The settings on record: 10-fold the IC50 for 2.5 hours, vs no-drug control.
Data set [1] concerns male gamete formation from stage V gametocytes. The experiment in a line: Male gamete exflagellation inhibition assay. Type of data set: cell-based. To be noted: Plasmodium falciparum, 48 h, read-out: inhibition of male gamete formation (EIA).
Data set [2] has as its system P. berghei ANKA GFP-Luc-SMcon sporozoites. The experiment in a line: P. berghei liver stage assay. Type of data set: cell-based. The settings on record: Plasmodium berghei, HepG2, read-out: IC50, inhibition of parasite invasion of HepG2 liver cells (liver stage).
The test system of data set [3] is PI3K (PF3D7_0515300) cKD parasite line. The experiment in a line: Susceptibility assay with PI3K conditional knockdown line. To be noted: no aTc vs high aTc.
The target in data set [4] is casein kinase 1 (CK1; PF3D7_1136500) (Plasmodium falciparum, UniProt Q8IHZ9). The experiment in a line: Kinobead chemoproteomic competition binding, Pf3D7 ABS extract.
Data set [5] has as its system PfNF54 stages II/III gametocytes. The experiment in a line: Early-stage gametocytocidal luciferase reporter assay. The settings on record: Plasmodium falciparum, read-out: inhibition of early-stage gametocytes. Type of data set: cell-based. Background: A reporter such as luciferase makes a cellular process visible.
The next data set has as its target PI4Kβ (PF3D7_0509800) (Plasmodium falciparum, UniProt Q8I406). The experiment in a line: Kinobead chemoproteomic competition binding, Pf3D7 ABS extract. The settings on record: read-out: Kd app for PI4Kβ; Kinobeads, P. falciparum ABS extract.
Data set [6] concerns PfNF54 stage IV/V gametocytes. The experiment in a line: Late-stage gametocytocidal luciferase reporter assay. Type of data set: cell-based. To be noted: Plasmodium falciparum, 48 h, read-out: IC50, viability of late-stage gametocytes.
A further data set can be described thus: Tolerability. Type of data set: in vivo. The settings on record: 10 mg/kg oral once daily, both animals.
In data set [7] the target is PI3K (Vps34; PF3D7_0515300) (Plasmodium falciparum, UniProt Q8I3V5). The experiment in a line: Lipid-Kinobead chemoproteomic competition binding, Pf3D7 ABS extract. To be noted: read-out: Kd app for PI3K; Lipid-Kinobeads, N = 1.
Data set [8] has as its target T1, cdc2-related protein kinase 5 (CRK5; PF3D7_0615500) (Plasmodium falciparum, UniProt C6KSZ6).
T1 sequence (C6KSZ6 1-705): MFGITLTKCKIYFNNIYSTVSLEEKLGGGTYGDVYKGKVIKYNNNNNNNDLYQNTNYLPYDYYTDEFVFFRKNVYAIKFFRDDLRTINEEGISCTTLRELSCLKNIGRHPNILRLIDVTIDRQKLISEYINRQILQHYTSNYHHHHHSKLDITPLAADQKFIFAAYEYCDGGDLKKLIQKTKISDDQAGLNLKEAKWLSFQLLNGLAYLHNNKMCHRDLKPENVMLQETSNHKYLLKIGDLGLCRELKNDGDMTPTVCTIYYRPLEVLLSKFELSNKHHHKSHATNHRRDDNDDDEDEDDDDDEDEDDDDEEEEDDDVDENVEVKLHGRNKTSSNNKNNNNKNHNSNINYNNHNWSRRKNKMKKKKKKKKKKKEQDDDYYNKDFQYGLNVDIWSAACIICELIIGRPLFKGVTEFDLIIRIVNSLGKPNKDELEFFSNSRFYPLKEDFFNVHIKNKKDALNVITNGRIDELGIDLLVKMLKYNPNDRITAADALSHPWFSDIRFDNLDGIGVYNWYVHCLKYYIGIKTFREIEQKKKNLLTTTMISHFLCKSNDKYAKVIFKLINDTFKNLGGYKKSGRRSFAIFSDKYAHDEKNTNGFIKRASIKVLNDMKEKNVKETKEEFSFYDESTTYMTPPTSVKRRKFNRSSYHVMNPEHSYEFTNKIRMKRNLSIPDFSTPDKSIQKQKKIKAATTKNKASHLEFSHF
The experiment in a line: Kinobead chemoproteomic competition binding, Pf3D7 ABS extract. The settings on record: read-out: Kd app for CRK5; Kinobeads, P. falciparum ABS extract.

For the next data set, the system named is PfNF54 strain. The experiment in a line: In vitro ABS activity against PfNF54 strain. Type of data set: cell-based. The settings on record: Plasmodium falciparum, read-out: in vitro IC50 against PfNF54 strain.
Data set [9] in a line: Whole-blood pharmacokinetics in NSG mouse efficacy study, LC-MS/MS. Type of data set: in vivo, NSG mice.
The subject of data set [10] is control cell line expressing an aptamer-regulatable fluorescent protein. The experiment in a line: Susceptibility assay with aptamer-regulatable control line. The settings on record: low vs high aTc.
Data set [11] deals with T2, protein kinase 2 (PK2; PF3D7_1238900) (Plasmodium falciparum, UniProt Q8I534).
T2 sequence (Q8I534 1-509): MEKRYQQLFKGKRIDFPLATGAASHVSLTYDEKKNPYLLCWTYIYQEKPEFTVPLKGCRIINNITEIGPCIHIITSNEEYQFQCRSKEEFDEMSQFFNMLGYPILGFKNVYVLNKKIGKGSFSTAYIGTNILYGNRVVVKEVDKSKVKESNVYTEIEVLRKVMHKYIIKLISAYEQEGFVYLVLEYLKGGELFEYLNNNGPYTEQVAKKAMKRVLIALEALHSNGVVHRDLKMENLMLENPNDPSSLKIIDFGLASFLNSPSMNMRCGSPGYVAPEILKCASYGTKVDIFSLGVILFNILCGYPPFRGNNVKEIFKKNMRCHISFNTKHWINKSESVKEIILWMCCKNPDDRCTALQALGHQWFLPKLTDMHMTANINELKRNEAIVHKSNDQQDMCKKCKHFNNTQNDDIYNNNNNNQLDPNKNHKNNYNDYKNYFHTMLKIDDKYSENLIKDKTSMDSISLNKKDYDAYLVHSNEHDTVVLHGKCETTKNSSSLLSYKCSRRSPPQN
The experiment in a line: Kinobead chemoproteomic competition binding, Pf3D7 ABS extract. The settings on record: read-out: Kd app for PK2; Kinobeads, P. falciparum ABS extract.

Another data set concerns Pf3D7. The experiment in a line: P. falciparum NSG mouse model of infection, 4-day test. The settings on record: day 7, single daily oral dose for four days, NSG mice. Type of data set: in vivo, Plasmodium falciparum.
Data set [12] has as its system PKG (PF3D7_1436600) cKD parasite line. The experiment in a line: Susceptibility assay with PKG conditional knockdown line. To be noted: low aTc (2 nM) vs high aTc.
The subject of data set [13] is PfNF54 stage V gametocytes. The experiment in a line: Standard membrane feeding assay. The arrangement: species or system Plasmodium falciparum. The settings on record: 2 μM, stage V gametocytes incubated 48 hours before feeding; mean ±SD.

Several values for one entry are separate records, joined by “and”; a condition that tells them apart may be missing. Equal values may be shown once. Bounds are passed on as bounds.

Chain of PI3K (Vps34; PF3D7_0515300) (Q8I3V5 1-2133): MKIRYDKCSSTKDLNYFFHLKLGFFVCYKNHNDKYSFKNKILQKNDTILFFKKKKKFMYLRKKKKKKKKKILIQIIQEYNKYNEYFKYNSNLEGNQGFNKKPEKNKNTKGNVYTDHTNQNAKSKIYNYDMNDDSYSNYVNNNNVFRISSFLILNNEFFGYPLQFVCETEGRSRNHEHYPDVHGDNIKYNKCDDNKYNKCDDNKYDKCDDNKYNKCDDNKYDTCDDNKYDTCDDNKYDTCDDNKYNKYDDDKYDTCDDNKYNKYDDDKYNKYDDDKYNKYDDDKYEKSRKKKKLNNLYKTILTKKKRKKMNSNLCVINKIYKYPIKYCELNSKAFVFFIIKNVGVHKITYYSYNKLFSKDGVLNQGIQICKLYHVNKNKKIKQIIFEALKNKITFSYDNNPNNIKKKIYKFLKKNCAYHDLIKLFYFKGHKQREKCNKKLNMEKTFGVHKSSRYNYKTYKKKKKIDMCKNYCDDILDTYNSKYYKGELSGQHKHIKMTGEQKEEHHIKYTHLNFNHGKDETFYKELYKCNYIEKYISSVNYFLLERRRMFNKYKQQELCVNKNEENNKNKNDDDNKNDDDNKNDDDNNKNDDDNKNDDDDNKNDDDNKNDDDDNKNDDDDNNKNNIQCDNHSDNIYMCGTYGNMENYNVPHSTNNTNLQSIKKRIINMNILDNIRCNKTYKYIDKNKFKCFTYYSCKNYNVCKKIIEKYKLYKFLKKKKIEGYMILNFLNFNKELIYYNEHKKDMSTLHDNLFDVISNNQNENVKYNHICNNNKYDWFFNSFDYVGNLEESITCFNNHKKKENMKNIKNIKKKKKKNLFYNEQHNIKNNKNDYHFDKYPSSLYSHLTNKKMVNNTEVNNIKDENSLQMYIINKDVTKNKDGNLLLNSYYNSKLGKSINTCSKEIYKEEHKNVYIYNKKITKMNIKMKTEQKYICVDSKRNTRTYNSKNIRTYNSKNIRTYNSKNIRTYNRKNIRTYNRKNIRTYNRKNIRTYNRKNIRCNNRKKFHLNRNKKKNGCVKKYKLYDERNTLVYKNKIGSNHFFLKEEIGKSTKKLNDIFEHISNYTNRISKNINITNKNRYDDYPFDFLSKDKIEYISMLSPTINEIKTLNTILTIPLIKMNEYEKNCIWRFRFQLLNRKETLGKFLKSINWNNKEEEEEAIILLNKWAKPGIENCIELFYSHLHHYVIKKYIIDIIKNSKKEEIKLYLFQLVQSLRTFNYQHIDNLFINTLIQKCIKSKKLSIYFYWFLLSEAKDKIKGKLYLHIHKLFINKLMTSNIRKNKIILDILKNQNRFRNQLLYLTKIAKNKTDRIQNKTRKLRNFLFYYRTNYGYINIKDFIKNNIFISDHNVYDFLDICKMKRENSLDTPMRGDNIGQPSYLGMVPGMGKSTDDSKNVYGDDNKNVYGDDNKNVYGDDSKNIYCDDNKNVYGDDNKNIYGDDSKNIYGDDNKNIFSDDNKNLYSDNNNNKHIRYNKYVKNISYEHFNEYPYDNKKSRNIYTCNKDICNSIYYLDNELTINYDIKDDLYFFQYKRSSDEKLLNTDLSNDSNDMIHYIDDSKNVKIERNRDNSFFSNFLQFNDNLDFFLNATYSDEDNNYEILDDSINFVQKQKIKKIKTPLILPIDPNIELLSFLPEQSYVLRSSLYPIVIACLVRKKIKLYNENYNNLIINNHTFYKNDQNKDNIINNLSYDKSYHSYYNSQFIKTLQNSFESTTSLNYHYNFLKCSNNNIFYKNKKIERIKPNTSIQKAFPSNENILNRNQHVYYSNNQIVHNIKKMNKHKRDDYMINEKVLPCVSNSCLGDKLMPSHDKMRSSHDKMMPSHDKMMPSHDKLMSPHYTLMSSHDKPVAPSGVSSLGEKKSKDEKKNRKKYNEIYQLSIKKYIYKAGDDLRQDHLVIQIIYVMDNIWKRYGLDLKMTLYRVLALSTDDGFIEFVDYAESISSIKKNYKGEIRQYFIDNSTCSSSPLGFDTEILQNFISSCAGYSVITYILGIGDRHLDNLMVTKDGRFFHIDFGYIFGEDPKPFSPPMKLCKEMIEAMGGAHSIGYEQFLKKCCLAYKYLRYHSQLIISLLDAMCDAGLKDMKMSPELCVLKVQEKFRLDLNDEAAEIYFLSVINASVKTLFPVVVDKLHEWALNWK
Chain of casein kinase 1 (CK1; PF3D7_1136500) (Q8IHZ9 whole entry): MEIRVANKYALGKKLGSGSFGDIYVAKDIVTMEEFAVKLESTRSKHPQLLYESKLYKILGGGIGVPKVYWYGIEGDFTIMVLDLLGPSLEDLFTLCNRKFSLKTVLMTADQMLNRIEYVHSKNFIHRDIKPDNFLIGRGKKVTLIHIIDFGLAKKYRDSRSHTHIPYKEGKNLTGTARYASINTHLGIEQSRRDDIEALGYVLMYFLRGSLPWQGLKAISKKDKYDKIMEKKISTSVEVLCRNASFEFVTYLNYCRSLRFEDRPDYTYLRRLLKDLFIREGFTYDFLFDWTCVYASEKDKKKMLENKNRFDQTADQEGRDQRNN
Chain of PI4Kβ (PF3D7_0509800) (Q8I406 1-1559): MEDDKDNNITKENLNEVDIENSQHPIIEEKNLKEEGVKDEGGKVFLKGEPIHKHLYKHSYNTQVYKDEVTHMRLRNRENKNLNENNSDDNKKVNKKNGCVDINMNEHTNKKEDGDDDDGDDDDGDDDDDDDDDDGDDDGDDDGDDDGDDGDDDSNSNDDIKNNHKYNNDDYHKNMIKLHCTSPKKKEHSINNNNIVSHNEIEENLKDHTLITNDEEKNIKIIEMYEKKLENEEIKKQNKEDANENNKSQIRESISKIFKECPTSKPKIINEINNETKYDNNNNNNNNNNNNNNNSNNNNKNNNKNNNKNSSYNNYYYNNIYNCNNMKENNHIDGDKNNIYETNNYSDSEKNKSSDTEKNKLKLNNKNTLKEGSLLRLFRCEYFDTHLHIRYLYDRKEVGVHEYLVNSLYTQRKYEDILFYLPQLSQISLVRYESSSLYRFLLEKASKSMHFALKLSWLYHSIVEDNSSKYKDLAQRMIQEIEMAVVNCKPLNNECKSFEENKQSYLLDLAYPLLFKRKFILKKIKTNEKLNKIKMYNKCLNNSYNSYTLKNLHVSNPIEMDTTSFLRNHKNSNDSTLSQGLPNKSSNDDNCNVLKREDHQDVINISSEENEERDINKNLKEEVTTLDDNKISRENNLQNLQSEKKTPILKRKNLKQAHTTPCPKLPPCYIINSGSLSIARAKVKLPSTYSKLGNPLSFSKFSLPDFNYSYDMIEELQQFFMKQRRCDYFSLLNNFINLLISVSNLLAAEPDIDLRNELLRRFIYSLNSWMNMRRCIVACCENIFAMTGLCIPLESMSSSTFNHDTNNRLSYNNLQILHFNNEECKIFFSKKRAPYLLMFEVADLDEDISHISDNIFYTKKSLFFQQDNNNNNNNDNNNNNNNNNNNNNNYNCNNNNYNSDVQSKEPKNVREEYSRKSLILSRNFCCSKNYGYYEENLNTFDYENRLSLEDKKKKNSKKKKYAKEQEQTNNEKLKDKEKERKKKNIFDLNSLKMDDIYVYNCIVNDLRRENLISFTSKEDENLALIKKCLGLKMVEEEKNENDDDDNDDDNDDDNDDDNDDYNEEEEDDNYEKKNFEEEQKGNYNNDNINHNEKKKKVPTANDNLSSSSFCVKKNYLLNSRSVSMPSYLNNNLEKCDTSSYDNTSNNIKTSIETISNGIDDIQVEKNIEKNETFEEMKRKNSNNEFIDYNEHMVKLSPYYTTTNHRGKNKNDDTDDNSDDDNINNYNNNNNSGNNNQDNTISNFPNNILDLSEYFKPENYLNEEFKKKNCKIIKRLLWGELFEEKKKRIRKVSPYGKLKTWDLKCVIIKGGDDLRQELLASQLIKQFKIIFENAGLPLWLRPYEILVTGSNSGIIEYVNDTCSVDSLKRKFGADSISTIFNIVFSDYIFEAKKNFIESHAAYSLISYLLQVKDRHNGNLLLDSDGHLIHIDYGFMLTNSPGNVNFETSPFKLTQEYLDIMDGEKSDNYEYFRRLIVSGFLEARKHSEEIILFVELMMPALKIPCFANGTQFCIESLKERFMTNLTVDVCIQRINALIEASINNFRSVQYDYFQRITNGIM

Compound `COc1ccc(C[C@H](N)C(=O)N[C@H]2[C@@H](O)[C@H](n3cnc4c(N(C)C)ncnc43)O[C@@H]2CO)cc1` [Puromycin] displayed a concentration for half-maximal inhibition (IC50) in “in vitro” of 588 ± 3 nM.

Turning to `Nc1ccc(-c2ccc3ncc4ccc(=O)n(-c5cccc(C(F)(F)F)c5)c4c3c2)cn1` [Torin-2], the concentration for half-maximal inhibition (IC50) in the data set with PfPI3K was 0.6 nM.

As for `CC(C)n1nc(-c2ccc3oc(N)nc3c2)c2c(N)ncnc21` [sapanisertib], the “effect on hemoglobin-derived peptide levels” value with Pf3D7 trophozoites is “disruption and reduction”. Further, the inhibition at 2 µM in data set [1] was determined as 89%. Further, the half-inhibitory concentration (IC50) was 134 nM in data set [2]; 538 nM in data set [6]; 58 nM and 0.018 µg/mL in the data set on PfNF54 strain. In [3], the “differential susceptibility on PI3K knockdown” value is given as “did not reveal differential susceptibility”. The Kd is < 1000 nM in data set [4]; ≤ 50 nM at PI4Kβ (PF3D7_0509800); ≤ 50 nM and 50 nM in [7]; < 1000 nM in [8]; < 1000 nM in data set [11]. For the same compound, the inhibition at 5 µM in data set [5] was found to be 30%. Moreover, the “weight loss (humane end point reached before day 7)” value in “Tolerability” was ≥ 15%. Further, the “whole-blood exposure level (below lowest limit of quantification)” value in [9] (0.05 mg/kg oral) and in [9] (0.1 mg/kg oral) was < 1 ng/mL each time. Besides, the “differential susceptibility, aptamer-regulatable control line” value in [10] is “did not reveal differential susceptibility”. For the same compound, the “ED90 (dose reducing parasitemia by 90% vs untreated control)” value with Pf3D7 is 0.88 mg/kg. Moreover, in [12], the “differential susceptibility on PKG knockdown” value is recorded as “did not reveal differential susceptibility”. Besides, the “transmission-reducing activity (TRA), reduction in mean oocyst formation” value in data set [13] was 54%.

For orientation: IC50 means the concentration at which inhibition is half-maximal. The term inhibition denotes the relative decrease from the control value, in per cent.
